The values that follow are results of earlier work, collected in article PMC13363528, “Structure–Activity Relationships of Pyrrolyl-Containing Diketo Acid and Non-Diketo Acid Derivatives as Inhibitors of SARS-CoV-2 nsp13-Associated Activities” (Molecules, 2026).

The series deals with SARS-CoV-2 nsp13 (Severe acute respiratory syndrome coronavirus 2, UniProt P0DTD1). The conditions noted are these: without BSA/TCEP; read-out: IC50 Unwinding.

Consider `O=c1c(O)c(-c2ccc(O)cc2)oc2cc(O)cc(O)c12` [Kaempferol], for which the IC50 (usually the point on the concentration scale where inhibition reaches its midpoint) is 760 ± 160 nM.
